According to patent publication US20200370087A1, “METHOD FOR DETERMINING MICROBIAL SUSCEPTIBILITY TO ANTIBIOTIC AGENTS” (Ascilion AB, priority 2017, published 2020):
≈ marks a conversion by molar mass, not a printed value.

Key:
[1] = tested on: Enterococcus faecalis (ATCC 29212); assay: Glucose consumption susceptibility test, blood culture diluted in MHB with glucose (Example 1); format: cell-based; parameters: glucose concentration, t = 0 / glucose concentration, t = 60 / glucose concentration, t = 120 / glucose concentration, t = 180 / glucose concentration, t = 240 / dC/dT (rate of change in glucose concentration): unit not given here; settings: for F = the rate of change in glucose concentration in relation to the reference / dC/dT (rate of change in glucose concentration) / glucose concentration, t = 0 / glucose concentration, t = 60 / glucose concentration, t = 120 / glucose concentration, t = 180 / glucose concentration, t = 240: E. faecalis; for glucose concentration, t = 0: 0 minutes; for glucose concentration, t = 60: 60 minutes; for glucose concentration, t = 120: 120 minutes; for glucose concentration, t = 180: 180 minutes; for glucose concentration, t = 240: 240 minutes
Method: (§1) Strains of Escherichia coli (ATCC 25922), Enterococcus faecalis (ATCC 29212) and Staphylococcus aureus (ATCC 29213) were inoculated in blood culture bottles (SVA, Uppsala, Sweden) and cultivated according to the manufacturer's instructions until positive.
(§2) Medium from each blood culture bottle was diluted 1:100 with cation adjusted Mueller-Hinton broth (SVA, Uppsala, Sweden) supplemented with glucose to a concentration of 1.0 mg/mL.
(§3) Glucose concentrations were measured at 0, 60, 120, 180, and 240 minutes using a WaveSense Jazz glucometer (AgaMatrix, Inc., Salem, N.H., USA) with accompanying test strips.
(§4) Susceptibility scores corresponding to MIC values were calculated as described above. A 80% threshold was applied, i.e. the lowest concentration of antibiotic that entailed a rate of change in glucose concentration that was equal to or less than 80% of the reference was selected as the Minimal Inhibitory Concentration. The rate of change was calculated between the measurements at 60 and 180 minutes.

[2] = tested on: Staphylococcus aureus (ATCC 29213); assay: as above; format: cell-based; parameters: glucose concentration, t = 0 / glucose concentration, t = 60 / glucose concentration, t = 120 / glucose concentration, t = 180 / glucose concentration, t = 240 / dC/dT (rate of change in glucose concentration): unit not given here; settings: S. aureus; for glucose concentration, t = 60: 60 minutes; for glucose concentration, t = 120: 120 minutes; for glucose concentration, t = 180: 180 minutes; for glucose concentration, t = 240: 240 minutes
Method: as §1, §2, §3, §4

[3] = tested on: Staphylococcus aureus ATCC 29213; settings: S.aureus, cited from earlier work

## CN[C@H](CC(C)C)C(=O)N[C@H]1C(=O)N[C@@H](CC(N)=O)C(=O)N[C@H]2C(=O)N[C@H]3C(=O)N[C@H](C(=O)N[C@H](C(=O)O)c4cc(O)cc(O)c4-c4cc3ccc4O)[C@H](O)c3ccc(c(Cl)c3)Oc3cc2cc(c3O[C@@H]2O[C@H](CO)[C@@H](O)[C@H](O)[C@H]2O[C@H]2C[C@](C)(N)[C@H](O)[C@H](C)O2)Oc2ccc(cc2Cl)[C@H]1O [Vancomycin, vancomycin]
[1]; antibiotic 0.0625 μg/mL
  F = the rate of change in glucose concentration in relation to the reference: 93%
  dC/dT (rate of change in glucose concentration): 34
  glucose concentration, t = 0: 145
  glucose concentration, t = 60: 156
  glucose concentration, t = 120: 139
  glucose concentration, t = 180: 89
[1]; antibiotic 0.125 μg/mL
  F = the rate of change in glucose concentration in relation to the reference: 83%
  dC/dT (rate of change in glucose concentration): 30
  glucose concentration, t = 0: 148
  glucose concentration, t = 60: 154
  glucose concentration, t = 120: 149
  glucose concentration, t = 180: 94
[1]; antibiotic 0.25 μg/mL
  F = the rate of change in glucose concentration in relation to the reference: 82%
  dC/dT (rate of change in glucose concentration): 30
  glucose concentration, t = 0: 143
  glucose concentration, t = 60: 155
  glucose concentration, t = 120: 146
  glucose concentration, t = 180: 96
[1]; antibiotic 0.5 μg/mL
  F = the rate of change in glucose concentration in relation to the reference: 82%
  dC/dT (rate of change in glucose concentration): 30
  glucose concentration, t = 0: 154
  glucose concentration, t = 60: 155
  glucose concentration, t = 120: 148
  glucose concentration, t = 180: 96
[1]; antibiotic 1 μg/mL
  F = the rate of change in glucose concentration in relation to the reference: 75%
  dC/dT (rate of change in glucose concentration): 27
  glucose concentration, t = 0: 151
  glucose concentration, t = 60: 164
  glucose concentration, t = 120: 153
  glucose concentration, t = 180: 110
[1]; antibiotic 2 μg/mL
  F = the rate of change in glucose concentration in relation to the reference: 29%
  dC/dT (rate of change in glucose concentration): 11
  glucose concentration, t = 0: 147
  glucose concentration, t = 60: 160
  glucose concentration, t = 120: 152
  glucose concentration, t = 180: 139
  glucose concentration, t = 240: 94
[1]; antibiotic 4 μg/mL
  F = the rate of change in glucose concentration in relation to the reference: 19%
  dC/dT (rate of change in glucose concentration): 7
  glucose concentration, t = 0: 147
  glucose concentration, t = 60: 162
  glucose concentration, t = 120: 153
  glucose concentration, t = 180: 148
  glucose concentration, t = 240: 149
[1]; antibiotic 8 μg/mL
  F = the rate of change in glucose concentration in relation to the reference: 7%
  dC/dT (rate of change in glucose concentration): 3
  glucose concentration, t = 0: 150
  glucose concentration, t = 60: 156
  glucose concentration, t = 120: 146
  glucose concentration, t = 180: 151
  glucose concentration, t = 240: 145
[1]; Enterococcus faecalis, ATCC29212, read-out: MIC, Measured
  MIC: 1 µg/mL (≈ 0.69 µM)
[2]; antibiotic 0.25 μg/mL
  F = the rate of change in glucose concentration in relation to the reference: 75%
  dC/dT (rate of change in glucose concentration): 25
  glucose concentration, t = 60: 142
  glucose concentration, t = 120: 133
  glucose concentration, t = 180: 92
  glucose concentration, t = 240: 42
[2]; antibiotic 0.5 μg/mL
  F = the rate of change in glucose concentration in relation to the reference: 84%
  dC/dT (rate of change in glucose concentration): 28
  glucose concentration, t = 60: 156
  glucose concentration, t = 120: 142
  glucose concentration, t = 180: 100
  glucose concentration, t = 240: 51
[2]; antibiotic 1 μg/mL
  F = the rate of change in glucose concentration in relation to the reference: 96%
  dC/dT (rate of change in glucose concentration): 32
  glucose concentration, t = 60: 161
  glucose concentration, t = 120: 140
  glucose concentration, t = 180: 97
  glucose concentration, t = 240: 51
[2]; antibiotic 2 μg/mL
  F = the rate of change in glucose concentration in relation to the reference: 88%
  dC/dT (rate of change in glucose concentration): 30
  glucose concentration, t = 60: 160
  glucose concentration, t = 120: 143
  glucose concentration, t = 180: 101
  glucose concentration, t = 240: 53
[2]; antibiotic 4 μg/mL
  F = the rate of change in glucose concentration in relation to the reference: 39%
  dC/dT (rate of change in glucose concentration): 13
  glucose concentration, t = 60: 157
  glucose concentration, t = 120: 147
  glucose concentration, t = 180: 131
  glucose concentration, t = 240: 107
[2]; antibiotic 8 μg/mL
  F = the rate of change in glucose concentration in relation to the reference: 6%
  dC/dT (rate of change in glucose concentration): 2
  glucose concentration, t = 60: 150
  glucose concentration, t = 120: 150
  glucose concentration, t = 180: 146
  glucose concentration, t = 240: 149
[2]; antibiotic 16 μg/mL
  F = the rate of change in glucose concentration in relation to the reference: 7%
  dC/dT (rate of change in glucose concentration): 3
  glucose concentration, t = 60: 157
  glucose concentration, t = 120: 153
  glucose concentration, t = 180: 152
  glucose concentration, t = 240: 149
[2]; antibiotic 32 μg/mL
  F = the rate of change in glucose concentration in relation to the reference: 13%
  dC/dT (rate of change in glucose concentration): 5
  glucose concentration, t = 60: 157
  glucose concentration, t = 120: 140
  glucose concentration, t = 180: 148
  glucose concentration, t = 240: 146
[3]; range obtained by EUCAST from ISO 20776-1: 2006
  MIC, EUCAST, range in parentheses: (0.5-2) ug/mL
[3]; reference value, Mueller-Hinton agar, incubation 18±2 h
  MIC, EUCAST: 1 µg/mL (≈ 0.69 µM)
